Test results from ChEMBL document CHEMBL1156686, “Xanthine oxidase-activated prodrugs of thymidine phosphorylase inhibitors” (Eur J Med Chem, 2008).

Experiments:
[1] = biological target: T1, Xanthine dehydrogenase/oxidase (Bos taurus, UniProt P80457); details: cattle
[2] = Inhibition of horse liver recombinant thymidine phosphorylase; set-up: species or system Equus caballus
[3] = biological target: T1, Xanthine dehydrogenase/oxidase; experiment: Inhibition of bovine xanthine oxidase using hypoxanthine as a substrate
[4] = biological target: T1, Xanthine dehydrogenase/oxidase; experiment: Inhibition of bovine xanthine oxidase using xanthine as a substrate

T1 sequence (P80457 whole entry): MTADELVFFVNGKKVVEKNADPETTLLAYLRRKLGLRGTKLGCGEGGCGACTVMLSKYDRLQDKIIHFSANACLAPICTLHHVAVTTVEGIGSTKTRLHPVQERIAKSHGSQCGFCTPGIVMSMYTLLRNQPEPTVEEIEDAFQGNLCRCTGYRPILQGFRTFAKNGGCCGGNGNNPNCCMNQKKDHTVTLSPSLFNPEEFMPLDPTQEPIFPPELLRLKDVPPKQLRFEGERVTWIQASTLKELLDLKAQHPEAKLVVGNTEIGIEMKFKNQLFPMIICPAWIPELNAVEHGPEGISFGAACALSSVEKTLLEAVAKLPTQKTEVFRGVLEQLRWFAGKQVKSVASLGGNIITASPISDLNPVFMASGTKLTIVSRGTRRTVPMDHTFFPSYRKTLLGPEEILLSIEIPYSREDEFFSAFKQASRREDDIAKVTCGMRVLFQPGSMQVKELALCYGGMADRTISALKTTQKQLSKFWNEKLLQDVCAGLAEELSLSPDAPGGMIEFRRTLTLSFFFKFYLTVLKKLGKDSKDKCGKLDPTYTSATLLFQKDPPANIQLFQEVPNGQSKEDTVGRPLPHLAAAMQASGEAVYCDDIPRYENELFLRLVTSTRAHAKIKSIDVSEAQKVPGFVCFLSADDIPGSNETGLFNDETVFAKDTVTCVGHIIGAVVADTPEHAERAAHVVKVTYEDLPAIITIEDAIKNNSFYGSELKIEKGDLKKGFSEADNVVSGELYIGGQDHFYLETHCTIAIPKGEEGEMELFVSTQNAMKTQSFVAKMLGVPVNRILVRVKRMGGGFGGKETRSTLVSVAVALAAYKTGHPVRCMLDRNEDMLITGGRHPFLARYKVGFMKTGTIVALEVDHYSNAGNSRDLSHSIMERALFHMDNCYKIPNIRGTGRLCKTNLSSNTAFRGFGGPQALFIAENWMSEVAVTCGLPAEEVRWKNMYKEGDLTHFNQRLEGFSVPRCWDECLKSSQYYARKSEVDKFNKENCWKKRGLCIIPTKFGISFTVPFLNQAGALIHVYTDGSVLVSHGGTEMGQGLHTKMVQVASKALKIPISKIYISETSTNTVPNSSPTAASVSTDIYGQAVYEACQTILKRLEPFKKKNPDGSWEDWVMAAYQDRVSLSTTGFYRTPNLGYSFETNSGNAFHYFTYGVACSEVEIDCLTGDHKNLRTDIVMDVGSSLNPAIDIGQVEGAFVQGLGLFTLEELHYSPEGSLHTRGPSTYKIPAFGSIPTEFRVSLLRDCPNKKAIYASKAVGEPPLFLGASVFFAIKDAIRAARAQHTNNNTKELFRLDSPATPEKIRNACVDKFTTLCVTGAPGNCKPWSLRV

Compound	Km [1] [µM]	also measured
Nc1ncncc1Br	44.4	–
N=C1CCCN1Cc1nc[nH]c(=O)c1Cl	64.9	–
Nc1[nH]c(=O)ncc1Br	32.5	–
O=c1[nH]cnc2[nH]ccc12	45.1	–
O=c1ncc2cc[nH]c2[nH]1	29.8	–
Nc1nc[nH]c(=O)c1Br	23.8	–
Nc1[nH]c(=O)[nH]c(=O)c1Br	–	IC50 [2]: 30 µM
O=c1[nH]c(=O)c2cc[nH]c2[nH]1 [7-DEAZAXANTHINE]	–	Ki [3]: 25 µM; Ki [4]: 70 µM
